Values joined by “and” are separate entries in the source; they are usually repeats but may differ in a detail not shown here. Equal values may be shown once.
Key:
[1] = test system: Clostridium tyrobutyricum; assay: Balch tube batch growth of strict butyrogen Clostridium tyrobutyricum on fructose, optical density; assay type: cell-based; conditions: added 21 h after inoculation
Experimental: Similar experiments were conducted to make a preliminary determination as to which of the crotonate and crotonate-like compounds would act as butyrogen retardants. For this purpose the selected compounds were tested again in a series of batch experiments to determine the growth response of butyrogens to the presence of the compound at varying concentrations. The batch experiments were all conducted by anoxically filling a 20 ml Balch tube with 5 ml of a fermentation medium having the composition given in Tables 2 and 3. The media included 0.5 v/v final concentration of a fructose substrate. For each of the crotonate concentrations tested, duplicate test tubes were prepared.
Each tube was inoculated with 0.5 ml seed culture inoculum of the strict butyrogen Clostridium tyrobutyricum. The tubes were maintained at a temperature of 37° C. Twenty one hours after the inoculation of the tube with the bacteria, the different compounds from Table 1 were added to different tubes in the amounts indicated in Table 6. This was at a time of early to mid-log phase growth for the bacteria. Each fermentation of the bacteria in the media at the different concentration of crotonate derivatives were allowed to progress and were monitored to determine the bacteria growth at selected intervals of time varying from approximately 20 hours to 54 hours. Growth at the intervals was measured by reading the optical density (OD) of the fermentation liquid. Optical density was measured as described in Example 1. The ability of a tube fermentation at a particular concentration of crotonate derivative to reach a predetermined optical density was recorded in Table 6. Table 6 indicates the presence of bacterial growth to an OD of approximately 1.8 or above with a “+”, and to an optical density in a range of 0.7 to 1.5 as a “+/−”, and indicates the failure of bacterial growth to reach an optical density of approximately 0.7 as a “−”.

C. autoethanogenum [2] = assay: Balch tube batch growth of homoacetogen C. autoethanogenum on fructose, optical density; assay type: cell-based; conditions: added 21 h after inoculation
Experimental: These compounds were first tested to determine their effect on a known homoacetogen. Each compound was tested in a series of batch experiments to determine the growth response of a homoacetogen to the presence of the compound at varying concentrations. The batch experiments were all conducted by anoxically filling a Balch tube with 5 ml of a fermentation medium having the composition given in Tables 2 and 3. To expedite results, these batch experiments used fructose as the growth nutrient source for bacteria. Thus, the media included a 5 g/L of fructose.
Each tube was inoculated with 0.5 ml of the same strain of C. autoethanogenum bacteria seed culture inoculum. The tubes were maintained at a temperature of 37° C. Twenty one hours after the inoculation of the tube with the bacteria, the different crotonate derivatives from Table 1 were added to different tubes in the amounts indicated in Table 4 This was at a time of early to mid-log phase growth for the bacteria. Each fermentation of the bacteria in the media at the different concentration of crotonate derivatives were allowed to progress and were monitored to determine the bacteria growth at selected intervals of time varying from approximately 20 hours to 190 hours. Growth at the intervals was measured by reading the optical density (OD) of the fermentation liquid. Optical density was measured using a Spectronic Spec 20 (Thermo Spectronic) at a wavelength of 600 nm. The OD of the Balch tube culture was measured directly in the tube using absorbance mode on the Spec 20 machine. The machine was set to zero absorbance by first measuring and adjusting the setting to zero absorbance using media only as a blank. This process was repeated at each indicated time point throughout the experiment. The ability of a tube fermentation at a particular concentration of crotonate derivative to reach a predetermined optical density was recorded in Table 4. Table 4 indicates the presence of bacterial growth to an OD of approximately 2 or above with a “+”, and to an optical density in a range of 0.5 to 1.5 as a “+/−”, and indicates the failure of bacterial growth to reach an optical density of approximately 0.5 as a “−”.

acyl-CoA dehydrogenases = assay: In vitro acyl-CoA dehydrogenase ferrocenium assay with C. tyrobutyricum cell-free extract; assay type: biochemical; conditions: 0.5 to 10 mM compound; rate of ferrocenium reduction at 300 nm
Experimental: Lehman, et al., in An Acyl-Coenzyme A Dehydrogenase Assay Utilizing the Ferricenium Ion, Analytical Biochemistry 186, pages 280-284 (1990), disclose an in vitro assay screening technique for acyl-CoA dehydrogenases for determining enzyme deficiencies in children. An adaptation of this technique was explored as a potential screening method for ascertaining potential butyrogen inhibitors. An aqueous assay liquor is prepared such that each 1 milliliter sample contains 50 mM of TrisHCl buffer (pH 7.6); 0.05 mM of butyryl-CoA; 5 micromoles of FAD (flavin adenine dinucleotide) and 0.4 mM of ferrocenium. Whole cells of C. tyrobutyricum are lysed and are added to the assay liquor. […] The abbreviation mM stands for millimolar. To assure metabolic consistency among the samples a master batch of C. tyrobutyricum is prepared and harvested at the early log growth stage (approximate O.D. of between about 0.5 and 0.7). The master batch fermentation broth is centrifuged and rinsed with 50 mM TrisHCl buffer (pH 7.6), centrifuged and reconstituted with 50 mM TrisHCl buffer (pH 7.6) to be 10 times more concentrated than the original master batch. Aliquots of about 0.5 milliliter are placed into cryogenic vials (about 1.8 milliliter capacity) and frozen at −80° C. until needed. When needed, a vial is placed in an anoxic Coy chamber and allowed to thaw to room temperature. Once thawed, the cells are added to a 15 mL centrifuge tube and diluted with 0.5 mL of a 2 mg/mL solution of lysozyme (purchased from Aldrich) in 50 mM Tris-HCl (final concentration of lysozyme is about 1 mg/mL). The centrifuge tube is inverted 5 times, removed from the Coy chamber and allowed to incubate at 37° C. for 30 minutes. […] The centrifuge tube is vortexed in the Coy chamber for about 30 seconds, removed from the chamber and centrifuged for 15 minutes at 4000 rpm and 4° C. The tube is returned to the chamber and the cell-free extract (supernatant) is used to prepare the above described samples. The samples are analyzed at various times by absorbance spectroscopy at 300 nm using a Thermo Scientific Evolution 300 UV/Vis spectrophotometer with a 7-cuvette carousel and Starna quartz cuvettes with a septum cap to determine the amount of reduction of ferrocenium. The sample is at laboratory temperature and is maintained under anaerobic conditions. Typically, the absorbance is measured over a period of about 10 to 20 minutes which is sufficient time for the absorbance to stop changing. A linear slope of the rate of change in absorbance during the period that the absorbance is changing is determined using Microsoft Excel® 2010 linear regression to generate a straight line from the data points. The more gradual the slope, the better inhibition because the enzyme is slower at reducing the ferrocenium in the assay sample. A dose-response curve is then determined for each compound by plotting the linear slope against the respective compound concentration. A linear slope is then determined for each compound using Microsoft Excel® 2010 linear regression to generate a straight line from the data points. The steeper the dose-response slope, the better the inhibition because the increased concentration of the compound causes more of a difference in enzyme activity. The dose-response slope generally has a broad standard of deviation due to experimental imprecision and slope determinations.

C. autoethanogenum [3] = assay: Toxicity to C. autoethanogenum by batch fermentation using syngas substrate, optical density; assay type: cell-based, Clostridium autoethanogenum; conditions: for O.D. Response of Various Inhibitors on C. autoethanogenum: Table 21, one value per compound; for O.D. Response to Various Inhibitors: duplicates A and B, amount not given
Experimental: In this example various crotonate-like compounds on are evaluated for toxicity to C. autoethanogenum by batch fermentation using syngas substrate. The batch fermentations are conducted by anoxically filling 100 mL serum bottles with 10 mL of media having the composition given in Tables 12 and 13. Duplicate runs are conducted for each concentration. The compounds are: • C-1 Ethyl 4,4,4-trifluoro-3-(trifluoromethyl)crotonate • C-4 4,4,4-Trifluorocrotonamide • C-9 Ethyl 4,4,4-Trifluoro-3-(amino)crotonate • C-18 3 trifluoromethyl-4-methoxybenzoate.
Each bottle is inoculated with 1.0 mL of seed culture inoculum from an active fermenter using syngas substrate and containing Clostridium autoethanogenum, which inoculum has an OD of about 4.92 (which upon a 10 times dilution provides a starting OD for the fermentation of about 0.49). The bottles are gased with syngas to about 100 kilopascals and maintained at a temperature of 37° C. The bottles are regassed with syngas every 8 to 12 hours. The syngas has the approximate composition set forth in Examples 6 to 10. Twenty four hours after inoculation of the bottles with the bacteria, the compounds are added to different bottles as a solution in 50 μL of N-methylpyrrolidone in the amounts indicated in Tables 20 and 21. The fermentation process is allowed to progress at 37° C. At selected intervals of time, bacterial growth is measured by reading the OD of the fermentation liquid using a Thermo Spectronic Genesys 20 spectrophotometer. Optical density is measured by anoxically removing an aliquot of fermentation liquid and adding it to a disposable cuvette. OD's ranging between 0.01 and 0.4 are measured using fermentation liquid directly, while OD's greater than 0.4 are measure after performing a 1/10 dilution with water.

[4] = 0 Hours, added 24 h after inoculation
[5] = 2.5 Hours, added 24 h after inoculation
[6] = 6.5 Hours, added 24 h after inoculation
[7] = 24.5 Hours, added 24 h after inoculation

Structure (SMILES)	Optical density valuation of C. tyrobutyricum ([1]; 100 ppm(m))	Optical density valuation of C. tyrobutyricum ([1]; 500 ppm(m))	Optical density valuation of C. tyrobutyricum ([1]; 1000 ppm(m))	Optical density valuation of C. autoethanogenum (C. autoethanogenum [2]; 10 ppm(m))	Optical density valuation of C. autoethanogenum (C. autoethanogenum [2]; 100 ppm(m))	Optical density valuation of C. autoethanogenum (C. autoethanogenum [2]; 500 ppm(m))	Optical density valuation of C. autoethanogenum (C. autoethanogenum [2]; 1000 ppm(m))	Optical density valuation of C. autoethanogenum (C. autoethanogenum [2]; 5000 ppm(m))	Optical density valuation of C. autoethanogenum (C. autoethanogenum [2]; 10000 ppm(m))	Dose-Response Slope (acyl-CoA dehydrogenases)	also measured
C/C=C/C(=O)OC(C)(C)C [C, Tert-butyl crotonate, reference compound]	+ (bacterial growth to an OD of approximately 1.8 or above)	+ (bacterial growth to an OD of approximately 1.8 or above)	+ (bacterial growth to an OD of approximately 1.8 or above)	+ (bacterial growth to an OD of approximately 2 or above)	+ (bacterial growth to an OD of approximately 2 or above)	+ (bacterial growth to an OD of approximately 2 or above)	+ (bacterial growth to an OD of approximately 2 or above)	+ (bacterial growth to an OD of approximately 2 or above)	− (failure of bacterial growth to reach an optical density of approximately 0.5)	6	
NC(=O)/C=C/C(F)(F)F [Compound C-4, 4,4,4-Trifluorocrotonamide]										8	O.D. Response of Various Inhibitors on C. autoethanogenum (C. autoethanogenum [3]; [4]): 0.49; O.D. Response of Various Inhibitors on C. autoethanogenum (C. autoethanogenum [3]; [5]): 0.41; O.D. Response of Various Inhibitors on C. autoethanogenum (C. autoethanogenum [3]; [6]): 0.42; O.D. Response of Various Inhibitors on C. autoethanogenum (C. autoethanogenum [3]; [7]): 1.06; O.D. Response of Various Inhibitors on C. autoethanogenum (C. autoethanogenum [3]; 30.5 Hours): 1.32; O.D. Response of Various Inhibitors on C. autoethanogenum (C. autoethanogenum [3]; 47.5 Hours): 1.67; O.D. Response of Various Inhibitors on C. autoethanogenum (C. autoethanogenum [3]; 56 Hours): 1.72; O.D. Response to Various Inhibitors (C. autoethanogenum [3]; [4]): 0.49; O.D. Response to Various Inhibitors (C. autoethanogenum [3]; [5]): 0.40 and 0.42; O.D. Response to Various Inhibitors (C. autoethanogenum [3]; [6]): 0.4 and 0.43; O.D. Response to Various Inhibitors (C. autoethanogenum [3]; [7]): 1.03 and 1.09; O.D. Response to Various Inhibitors (C. autoethanogenum [3]; 30.5 Hours, added 24 h after inoculation): 1.31 and 1.33; O.D. Response to Various Inhibitors (C. autoethanogenum [3]; 47.5 Hours, added 24 h after inoculation): 1.7 and 1.64
CCOC(=O)/C=C/C(F)(F)F [E, ethyl 4,4,4-trifluorocrotonate]	+ (bacterial growth to an OD of approximately 1.8 or above)	+ (bacterial growth to an OD of approximately 1.8 or above)	+ (bacterial growth to an OD of approximately 1.8 or above)	+ (bacterial growth to an OD of approximately 2 or above)	+ (bacterial growth to an OD of approximately 2 or above)	+ (bacterial growth to an OD of approximately 2 or above)	+ (bacterial growth to an OD of approximately 2 or above)	− (failure of bacterial growth to reach an optical density of approximately 0.5)	− (failure of bacterial growth to reach an optical density of approximately 0.5)	6	
CCOC(=O)/C(C)=C/C(F)(F)F [F, ethyl-2-methyl-4,4,4-trifluorocrotonate, reference compound]	+ (bacterial growth to an OD of approximately 1.8 or above)	+ (bacterial growth to an OD of approximately 1.8 or above)	+ (bacterial growth to an OD of approximately 1.8 or above)	+ (bacterial growth to an OD of approximately 2 or above)	+ (bacterial growth to an OD of approximately 2 or above)	+ (bacterial growth to an OD of approximately 2 or above)	+ (bacterial growth to an OD of approximately 2 or above)	+/− (to an optical density in a range of 0.5 to 1.5)	− (failure of bacterial growth to reach an optical density of approximately 0.5)	2	
